Experimental data taken from ChEMBL document CHEMBL1201862, “PubChem BioAssay data set” (2004).
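Cells were grown in 96-well plates and exposed to each compound for 48 hours at five concentrations; endpoints were interpolated linearly between bracketing concentrations, or set to the highest concentration if not reached. GI50 = concentration required for 50% inhibition of growth.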 The source made the active and inactive calls. Cut-off read from the data, not from the text of the source: active = GI50 up to about 1.1 µM and inactive = higher.

Key:
Experiment in all cases: inhibition of tumour cell growth, NCI panel, 48 h
[1] = tested on: KM-20L2
[2] = tested on: IGROV-1
[3] = tested on: EKVX
[4] = tested on: ACHN
[5] = tested on: DLD-1
[6] = tested on: CCRF-CEM
[7] = tested on: UACC-257
[8] = tested on: NCI-H23
[9] = tested on: A549
[10] = tested on: SNB-75
[11] = tested on: 786-0
[12] = tested on: CAKI-1
[13] = tested on: HCT-116
[14] = tested on: HL-60
[15] = tested on: COLO 205

Measured: GI50

CCc1cccc(C)c1NS(=O)(=O)c1ccccc1
inactive: [1] > 100 µM | [2] > 100 µM | [3] > 100 µM | [4] > 100 µM | [5] > 100 µM | [6] > 100 µM | [7] > 100 µM | [8] > 100 µM | [9] > 100 µM | [10] > 100 µM | [11] > 100 µM | [12] > 100 µM | [13] > 100 µM | [14] > 100 µM

CCOC(=O)C/C(N)=C(\C#N)C(=O)OCC
inactive: [1] > 100 µM | [2] > 100 µM | [3] > 100 µM | [4] > 100 µM | [5] > 100 µM | [6] > 100 µM | [15] > 100 µM | [8] > 100 µM | [9] > 100 µM | [10] > 100 µM | [11] > 100 µM | [12] > 100 µM | [13] > 100 µM | [14] > 100 µM

N#Cc1ccc(/C=N\N2C(=O)c3ccccc3C2=O)cc1
inactive: [1] > 100 µM | [2] > 100 µM | [3] > 100 µM | [4] > 100 µM | [5] > 100 µM | [6] > 100 µM | [7] > 100 µM | [8] > 100 µM | [9] > 100 µM | [10] > 100 µM | [11] > 100 µM | [12] > 100 µM | [13] > 100 µM | [14] > 100 µM

O=C(c1ccccc1)[C@H]1Nc2ccc(Cl)cc2C2c3ccccc3CC21 (stereo partly specified)
inactive: [1] > 100 µM | [2] > 100 µM | [4] 45.2 µM | [5] > 100 µM | [7] 18.5 µM | [15] 41.1 µM | [8] 60.3 µM | [9] 34.6 µM | [10] 20.8 µM | [11] 30.8 µM | [12] > 100 µM | [13] 26 µM

CCOP(=O)(OCC)/C(C#N)=C/c1ccc[nH]1
inactive: [1] > 100 µM | [4] > 100 µM | [5] > 100 µM | [6] > 100 µM | [7] > 100 µM | [15] > 100 µM | [8] > 100 µM | [9] > 100 µM | [10] 55.7 µM | [11] > 100 µM | [12] > 100 µM | [13] > 100 µM | [14] > 100 µM

N#Cc1nc(Nc2cccc3ccccc23)sc1N
inactive: [1] 43.2 µM | [2] 45.1 µM | [4] 25.1 µM | [5] 48.4 µM | [7] 15.8 µM | [15] 24.6 µM | [8] 14 µM | [9] 26.5 µM | [10] 42.8 µM | [11] 33 µM | [12] 28.7 µM | [13] 32.1 µM | [14] 20.7 µM

COc1ccc(CC2c3c(cc(OC)c(OC)c3OC)CCN2C)cc1OC (stereo unspecified)
inactive: [1] > 100 µM | [3] > 100 µM | [4] > 100 µM | [5] > 100 µM | [6] > 100 µM | [7] > 100 µM | [8] > 100 µM | [9] > 100 µM | [10] > 100 µM | [11] > 100 µM | [12] > 100 µM | [13] > 100 µM

CC1=C(C(=O)CC(=O)C(=O)Nc2cc(C)ccc2C)Sc2ccccc2N1
inactive: [2] > 100 µM | [3] > 100 µM | [4] > 100 µM | [5] 92.3 µM | [6] 80.9 µM | [7] > 100 µM | [8] > 100 µM | [9] > 100 µM | [11] > 100 µM | [12] > 100 µM | [13] > 100 µM | [14] > 100 µM

COc1cc2ccnc3c(=C(SC)SC)c(=O)c(c1OC)c23
inactive: [1] 15.7 µM | [2] 21 µM | [3] > 10 µM | [4] 12.9 µM | [5] 13.9 µM | [6] 2.86 µM | [7] 13.6 µM | [15] 3.37 µM | [8] > 10 µM | [9] 42.3 µM | [10] 10.2 µM | [11] 11 µM | [12] 10.3 µM | [14] 2.26 µM

COc1ccc2nc3cc(Cl)ccc3c(Sc3ccccc3[N+](=O)[O-])c2c1
inactive: [1] > 100 µM | [2] > 100 µM | [3] > 100 µM | [4] > 100 µM | [5] > 100 µM | [6] > 100 µM | [7] > 100 µM | [15] 17.3 µM | [8] > 100 µM | [9] > 100 µM | [10] 16.9 µM | [11] 75.3 µM | [12] > 100 µM | [13] > 100 µM

COc1ccc2c(c1)C(=O)c1ccc(OC)cc1C2=S
inactive: [1] > 100 µM | [2] > 100 µM | [3] > 100 µM | [4] > 100 µM | [5] 55.5 µM | [6] 25.5 µM | [7] > 100 µM | [15] > 100 µM | [8] > 100 µM | [9] > 100 µM | [10] 30.3 µM | [11] > 100 µM | [13] > 100 µM | [14] 40.1 µM

CCCn1c(SCCSc2c3ccccc3c(-c3nc(F)nc(F)n3)n2CCC)c2ccccc2c1-c1nc(F)nc(F)n1
inactive: [1] 91.6 µM | [3] > 100 µM | [4] 82.6 µM | [5] 20.5 µM | [6] 46.9 µM | [7] > 100 µM | [15] 38 µM | [8] > 100 µM | [9] > 100 µM | [10] > 100 µM | [11] > 100 µM | [12] > 100 µM | [13] > 100 µM | [14] > 100 µM

CN(c1ccccc1)C1C(=O)N(c2ccccc2)C1/C=C/c1ccccc1 (stereo unspecified)
inactive: [2] > 100 µM | [3] > 100 µM | [4] > 100 µM | [5] > 100 µM | [6] > 100 µM | [7] > 100 µM | [15] > 100 µM | [8] > 100 µM | [9] > 100 µM | [10] > 100 µM | [11] > 100 µM | [12] > 100 µM | [13] > 100 µM | [14] > 100 µM

CN1C/C(=C\C=C\c2ccccc2)C(=O)/C(=C/C=C/c2ccccc2)C1
inactive: [1] > 100 µM | [2] > 100 µM | [3] > 100 µM | [4] > 100 µM | [5] > 100 µM | [6] 35.9 µM | [7] > 100 µM | [15] > 100 µM | [8] > 100 µM | [9] > 100 µM | [10] > 100 µM | [11] 87.3 µM | [12] > 100 µM | [13] > 100 µM

O=C(O)c1ccccc1Cc1ccco1
inactive: [1] > 100 µM | [2] > 100 µM | [3] > 100 µM | [4] > 100 µM | [5] > 100 µM | [7] > 100 µM | [15] > 100 µM | [8] > 100 µM | [9] > 100 µM | [10] > 100 µM | [11] > 100 µM | [12] > 100 µM | [13] > 100 µM
